# Assays:
# [1] = system: T1, DHFR in MDA-MB-468 lysates; experiment: Lysate cellular thermal shift assay (CETSA) for DHFR; type: binding, Human; conditions: 10 μM, MDA-MB-468 lysate, 45 °C for 3 min, DMSO at 37 °C = 100%
# T1 construct: reactions containing 55 μg MDA-MB-468 lysate; endogenous in cells; host or cells: MDA-MB-468
# Protocol: Trypsinized MDA-MB-468 cells were harvested by centrifugation at 200× g for 5 min and washed with PBS supplemented with EDTA-free PIC (Roche) and flash frozen for storage at −80 °C. Cells were lysed by resuspension in 60 μL PBS/PIC per 1 × 10^6 cells. Cells were lysed by three freeze-thaw cycles, where cells were frozen in an ethanol/dry ice bath for 3 min, immediately followed by incubation in a 37 °C water bath for 3 min. The insoluble fraction was removed by centrifugation at 20,000× g for 20 min at 4 °C. The supernatant containing the soluble lysate was removed and saved for subsequent steps.
# After incubation, each reaction was transferred to a 1.5 mL tube and centrifuged at 20,000× g for 20 min at 4 °C to remove the insoluble proteins. After centrifugation, 18 μL of supernatant was carefully removed from each reaction, without disturbing any pelleted aggregates, and added to 4.5 μL of 5× SDS-PAGE loading buffer. 11 μL of each reaction was loaded onto a gel in duplicate, and proteins were detected by Western blot (as described below). Resulting band densities were fit to the Boltzmann equation to determine the melting temperature (Tm):(3) y=Bottom+Top−Bottom/1+e^Tm−x/Slope
# To rescue the thermal degradation of DHFR by inhibitors, samples containing 10 μM inhibitor, 55 μg lysate, and 1% DMSO in a total volume of 28 μL in DHFR buffer were prepared in PCR tubes and incubated at room temperature for 20 min. Two DMSO-only controls were also prepared. Reactions containing inhibitors were then incubated at 45 °C for 3 min. One DMSO-only control was also heated at 45 °C for 3 min, and the other control was heated at 37 °C for 3 min. The soluble protein fraction was separated from the insoluble proteins by centrifugation, and proteins were separated by SDS-PAGE, as described above, and analyzed via Western blot, as described below. Each experiment was repeated 3 times.
# Proteins were electrophoretically separated on a 10% gel, and proteins were transferred to a methanol-activated PVDF membrane using the Trans-Blot Turbo transfer system (Bio-Rad) for 7 min at 1.3 A and 25 V in Trans-Blot Turbo transfer buffer (Bio-Rad). Membranes were blocked with 5% skim milk w/v in TBS-T (20 mM Tris, 150 mM NaCl, 0.05% Tween-20) for 1 h at room temperature. […] The horseradish peroxidase (HRP)-linked anti-mouse IgG secondary antibody (NA931, Cytiva; 1:3000) was added for 1 h at room temperature in 5% skim milk w/v in TBS-T. Signal was detected by adding Immobilon Forte Western HRP Substrate (Millipore), and chemiluminescence was captured on a Sapphire Biomolecular Imager (Azure Biosystems). Band densities were determined using ImageJ (Fiji). The band intensity of DHFR was normalized to the thermostable loading control SOD1 [22].
# [2] = system: STAT3 transcriptional activity in U3A STAT3 luciferase reporter cell line; experiment: STAT3 luciferase reporter assay; type: cell-based; conditions: for Inhibition of STAT3-dependent luciferase activity: 0.02–20 μM, OSM 10 ng/mL
# Protocol: The STAT3-dependent luciferase reporter assay was performed as previously reported. One day prior to the assay, the U3A STAT3 luciferase reporter cell line was seeded in a 96-well plate at 8000 cells per well. Cells were then incubated with compounds at the indicated concentration, and each well was treated with either media control or stimulated with 10 ng/mL oncostatin M (OSM) and incubated for six hours at 37 °C. Luciferase activity was quantified using the Bright-Glo Luciferase Assay system (Promega) and a Luminoskan Ascent Luminometer (Labsystems). Collected luminescence readings were normalized to DMSO-treated controls. Stimulation with (+OSM) gave luminescence values around 2.5 times that of the unstimulated control (−OSM). Quadruplicates were averaged and plotted with error bars representing standard deviation. Each condition was performed in quadruplicate on two separate occasions (n = 2) with representative data shown. Statistical significance was determined using Ordinary one-way ANOVA with a Dunnett multiple comparison test.
smiles,measurement,setting,value
"CC1(C)N=C(N)N=C(N)N1c1ccc(Cl)cc1 [Cyc, Cycloguanil]",Normalized Band Density (%) of soluble DHFR,[1],greater than 100%
same,Normalized Band Density (%) of soluble DHFR,[1]; listed as Cycloguanil,125.67 ± 39.6%
same,STAT3-dependent luciferase activity,"[2]; 20 nM, U3A",significantly inhibited
same,Inhibition of STAT3-dependent luciferase activity,[2],potent inhibition of luciferase activity
"CCc1nc(N)nc(N)c1-c1ccc(Cl)cc1 [Pyr, Pyrimethamine]",Normalized Band Density (%) of soluble DHFR,[1],greater than 100%
same,Normalized Band Density (%) of soluble DHFR,[1]; listed as Pyrimethamine,104.12 ± 33.5%
same,Inhibition of STAT3-dependent luciferase activity,[2],do not reach full STAT3 inhibition until µM concentrations
CC1(C)N=C(N)N=C(N)N1c1ccc(CCCCc2ccc(S(=O)(=O)F)cc2)c(Cl)c1 [compound 127159],Normalized Band Density (%) of soluble DHFR,[1],99.96 ± 26.2%
same,Inhibition of STAT3-dependent luciferase activity,[2],do not reach full STAT3 inhibition until µM concentrations

# Reference: PMC9961069 (Metabolites, 2023)
